Reference: patent publication EP3165218A1, “WATER DISPERSIBLE GRANULATES CONTAINING OXIDIZED OR REDUCED FORMS OF COENZYME Q10” (INDENA S.p.A., priority 2015, dated 2017)

Test: Water dispersability, visual evaluation
Format: physicochemical
Conditions: quantity corresponding to 50 mg of Coenzyme Q10 in about 40 ml of tap water at room temperature; evaluated visually
Description: The water dispersability of the granulate of the invention was evaluated visually in comparison with unformulated Coenzyme Q10 administered as crystal powder. A quantity of the granulate of the invention corresponding to 50 mg of Coenzyme Q10 was dispersed in about 40 ml of tap water at room temperature. The product formed a very fine and homogeneous cloudy dispersion under mild agitation and no precipitation occurred.

**Q.** For `COC1=C(OC)C(=O)C(C/C=C(\C)CC/C=C(\C)CC/C=C(\C)CC/C=C(\C)CC/C=C(\C)CC/C=C(\C)CC/C=C(\C)CC/C=C(\C)CC/C=C(\C)CCC=C(C)C)=C(C)C1=O` [crystalline Coenzyme Q10, Coenzyme Q10], which water dispersability is on record?
**A.** the powder remained on the surface of water
